Source: ChEMBL document CHEMBL1255270, “Relationship between antibiotic use and incidence of MexXY-OprM overproducers among clinical isolates of Pseudomonas aeruginosa” (2008)
In brackets after ≈: the same amount, converted by molar mass.

How the values were obtained:
Assay type in all cases: functional
Pseudomonas aeruginosa [1] = assay: Antimicrobial activity against MexXY-OprM-overproducing Pseudomonas aeruginosa PAO1 harboring MexY and MexZ mutant gene selected after 8 ug/ml of amikacin exposure
Pseudomonas aeruginosa [2] = assay: Antimicrobial activity against mexXY-OprM-overproducing Pseudomonas aeruginosa clinical isolate
Pseudomonas aeruginosa [3] = assay: Antimicrobial activity against MexXY-OprM-overproducing Pseudomonas aeruginosa PAO1 harboring MexY agrZ mutant and MexZ mutant gene selected after 4ug/ml of gentamycin exposure
Pseudomonas aeruginosa [4] = assay: Antimicrobial activity against MexXY-OprM-overproducing Pseudomonas aeruginosa PAO1 harboring MexY agrW mutant and MexZ mutant gene selected after 4 ug/ml of cefepime exposure
Pseudomonas aeruginosa [5] = assay: Antimicrobial activity against MexXY-OprM-overproducing Pseudomonas aeruginosa PAO1 harboring MexY agrZ mutant and MexZ mutant gene selected after 1 ug/ml of Norfloxacin exposure
Pseudomonas aeruginosa [6] = assay: Antimicrobial activity against mexXY-OprM-overproducing Pseudomonas aeruginosa isolate PA/XY assessed as zone of inhibition by disk diffusion method
Pseudomonas aeruginosa [7] = assay: Antimicrobial activity against mexXY-OprM-overproducing Pseudomonas aeruginosa PAO1
Pseudomonas aeruginosa [8] = assay: Antimicrobial activity against MexXY-OprM-overproducing Pseudomonas aeruginosa PAO1 harboring MexY and MexZ mutant gene selected after 0.25 ug/ml of ciprofloxacin exposure
Pseudomonas aeruginosa [9] = assay: Antimicrobial activity against MexXY-OprM-overproducing Pseudomonas aeruginosa PAO1 harboring MexY agrW mutant and MexZ mutant gene selected after 1 ug/ml of oflaxacin exposure
Pseudomonas aeruginosa [10] = assay: Antimicrobial activity against MexXY-OprM-overproducing Pseudomonas aeruginosa PAO1 harboring MexY and MexZ mutant gene selected after 4 ug/ml of cefepime exposure
Pseudomonas aeruginosa [11] = assay: Antimicrobial activity against MexXY-OprM-overproducing Pseudomonas aeruginosa PAO1 harboring MexY agrW mutant and MexZ mutant gene selected after 8 ug/ml of amikacin exposure
Pseudomonas aeruginosa [12] = assay: Antimicrobial activity against MexXY-OprM-overproducing Pseudomonas aeruginosa PAO1 harboring MexY agrW mutant and MexZ mutant gene selected after 0.25 ug/ml of ciprofloxacin exposure
Pseudomonas aeruginosa [13] = assay: Antimicrobial activity against MexXY-OprM-overproducing Pseudomonas aeruginosa PAO1 harboring MexY agrZ mutant and MexZ mutant gene selected after 1 ug/ml of tobramycin exposure

| Compound | MIC (Pseudomonas aeruginosa [1]) [µg/mL] | MIC (Pseudomonas aeruginosa [2]) [µg/mL] | MIC (Pseudomonas aeruginosa [3]) [µg/mL] | MIC (Pseudomonas aeruginosa [4]) [µg/mL] | MIC (Pseudomonas aeruginosa [5]) [µg/mL] | inhibition zone (IZ) (Pseudomonas aeruginosa [6]) [mm] | MIC (Pseudomonas aeruginosa [7]) [µg/mL] | MIC (Pseudomonas aeruginosa [8]) [µg/mL] | MIC (Pseudomonas aeruginosa [9]) [µg/mL] | MIC (Pseudomonas aeruginosa [10]) [µg/mL] | MIC (Pseudomonas aeruginosa [11]) [µg/mL] | MIC (Pseudomonas aeruginosa [12]) [µg/mL] | MIC (Pseudomonas aeruginosa [13]) [µg/mL] |
| --- | --- | --- | --- | --- | --- | --- | --- | --- | --- | --- | --- | --- | --- |
| GENTAMICIN | 8 | 2 | 8 | 8 | 8 | < 20 | 4 | 8 | 8 | 8 | 8 | 8 | 8 |
| NCC[C@H](O)C(=O)N[C@@H]1C[C@H](N)[C@@H](O[C@H]2O[C@H](CN)[C@@H](O)[C@H](O)[C@H]2O)[C@H](O)[C@H]1O[C@H]1O[C@H](CO)[C@@H](O)[C@H](N)[C@H]1O [AMIKACIN] | 8 | 4 (≈ 6.83 µM) | 8 | 8 | 8 | <20 | 4 (≈ 6.83 µM) | 8 | 8 | 8 | 8 | 8 | 8 |
| NC[C@H]1O[C@H](O[C@H]2[C@H](O)[C@@H](O[C@H]3O[C@H](CO)[C@@H](O)[C@H](N)[C@H]3O)[C@H](N)C[C@@H]2N)[C@H](N)C[C@@H]1O [TOBRAMYCIN] | 2 | 1 (≈ 2.14 µM) | 2 | 2 | 2 | <20 | 1 (≈ 2.14 µM) | 2 | 2 | 2 | 2 | 2 | 2 |
| O=C(O)c1cn(C2CC2)c2cc(N3CCNCC3)c(F)cc2c1=O [CIPROFLOXACIN] |  |  |  |  |  |  | 0.12 (≈ 0.362 µM) |  |  |  |  |  |  |
| CO/N=C(\C(=O)N[C@@H]1C(=O)N2C(C(=O)[O-])=C(C[N+]3(C)CCCC3)CS[C@H]12)c1csc(N)n1 | 4 |  | 4 | 4 | 4 |  | 2 (≈ 4.16 µM) | 4 | 4 | 4 | 4 | 4 | 4 |
